Earlier results on one compound are cited in patent WO2013169007A1, “Sustained-release complex preparations for treating diabetes with improved drug compliance and method for preparing same” (priority 2012, dated 2013).

For `CCC1=C(C)CN(C(=O)NCCc2ccc(S(=O)(=O)NC(=O)N[C@H]3CC[C@H](C)CC3)cc2)C1=O` [glimepiride], the drug half-life entry (continuous administration) is listed as “about 9 hours”. The “absorption by the gastrointestinal tract” value (in vivo, po) is “almost completely absorbed”.
